Results: ChEMBL document CHEMBL1201862, “PubChem BioAssay data set” (2004)
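Assay format: 96-well plates, 48-hour exposure. Here, GI50 denotes the concentration required for 50% inhibition of growth.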 The source made the active and inactive calls. Cut-off read from the data, not from the text of the source: active = GI50 up to about 1.1 µM and inactive = higher.

How the values were obtained:
Test in all cases: inhibition of tumour cell growth, NCI panel, 48 h
[1] = system: RPMI-8226
[2] = system: SK-MEL-28
[3] = system: SF-268
[4] = system: 786-0
[5] = system: HOP-62
[6] = system: MDA-N
[7] = system: IGROV-1
[8] = system: UACC-62
[9] = system: HOP-92
[10] = system: MDA-MB-435
[11] = system: NCI-H522
[12] = system: ACHN
[13] = system: MDA-MB-231
[14] = system: T47D
[15] = system: SK-OV-3
[16] = system: SNB-75
[17] = system: OVCAR-3
[18] = system: SNB-19
[19] = system: LOX IMVI
[20] = system: RXF 393
[21] = system: MCF7
[22] = system: HCT-116
[23] = system: Malme-3M
[24] = system: NCI-H23
[25] = system: PC-3
[26] = system: HCC 2998
[27] = system: KM12
[28] = system: TK-10
[29] = system: A549
[30] = system: CAKI-1
[31] = system: EKVX
[32] = system: Hs-578T
[33] = system: OVCAR-8
[34] = system: M14
[35] = system: SN12C
[36] = system: SK-MEL-2
[37] = system: A498
[38] = system: OVCAR-4
[39] = system: NCI-H226
[40] = system: SF-295
[41] = system: SF-539
[42] = system: SK-MEL-5
[43] = system: DU-145
[44] = system: UO-31
[45] = system: OVCAR-5
[46] = system: COLO 205
[47] = system: NCI/ADR-RES
[48] = system: HCT-15
[49] = system: UACC-257
[50] = system: CCRF-CEM
[51] = system: SW-620
[52] = system: MOLT-4
[53] = system: U-251
[54] = system: BT-549
[55] = system: HT-29
[56] = system: K562
[57] = system: HL-60
[58] = system: NCI-H460

Measured: GI50

Cc1ccc(-n2cnc3c(N)nc(N)nc32)cc1
inactive: [1] > 100 µM | [2] > 100 µM | [3] > 100 µM | [4] > 100 µM | [5] > 100 µM | [6] > 100 µM | [7] > 100 µM | [8] 84.1 µM | [9] > 100 µM | [10] > 100 µM | [11] > 100 µM | [12] > 100 µM | [13] > 100 µM | [14] > 100 µM | [15] > 100 µM | [16] 1.53 µM | [17] > 100 µM | [18] > 100 µM | [19] > 100 µM | [20] 43.6 µM | [21] 66.5 µM | [22] > 100 µM | [23] > 100 µM | [24] > 100 µM | [25] > 100 µM | [26] 76.2 µM | [27] 42.6 µM | [28] 65.6 µM | [29] 69.5 µM | [30] > 100 µM | [31] 81.5 µM | [32] 42.7 µM | [33] > 100 µM | [34] > 100 µM | [35] > 100 µM | [36] > 100 µM | [37] > 100 µM | [38] > 100 µM | [39] > 100 µM | [40] > 100 µM | [41] > 100 µM | [42] > 100 µM | [43] > 100 µM | [44] 58.9 µM | [45] > 100 µM | [46] > 100 µM | [47] > 100 µM | [49] > 100 µM | [50] 43.1 µM | [51] > 100 µM | [52] 44.7 µM | [53] > 100 µM | [54] > 100 µM | [55] > 100 µM
> 100 µM: [48]

COc1c(C(=O)CC2c3c(cc4oc(C)cc(=O)c4c3OC)OC(=N)C2c2nc3ccccc3[nH]2)c(O)c(OC)c2occc12 (stereo unspecified)
inactive: [1] > 100 µM | [2] > 100 µM | [3] > 100 µM | [4] > 100 µM | [5] > 100 µM | [6] > 100 µM | [7] > 100 µM | [8] > 100 µM | [9] > 100 µM | [10] > 100 µM | [11] > 100 µM | [12] > 100 µM | [13] > 100 µM | [14] > 100 µM | [15] > 100 µM | [16] > 100 µM | [17] > 100 µM | [18] > 100 µM | [19] > 100 µM | [20] > 100 µM | [21] > 100 µM | [22] > 100 µM | [23] > 100 µM | [24] > 100 µM | [25] > 100 µM | [26] > 100 µM | [27] > 100 µM | [28] > 100 µM | [29] > 100 µM | [56] > 100 µM | [30] > 100 µM | [31] > 100 µM | [32] > 100 µM | [33] > 100 µM | [34] > 100 µM | [35] > 100 µM | [57] > 100 µM | [36] > 100 µM | [37] > 100 µM | [38] > 100 µM | [39] > 100 µM | [40] > 100 µM | [42] > 100 µM | [43] > 100 µM | [44] > 100 µM | [45] > 100 µM | [46] > 100 µM | [47] > 100 µM | [49] > 100 µM | [50] > 100 µM | [51] > 100 µM | [52] > 100 µM | [53] > 100 µM | [58] > 100 µM | [54] > 100 µM | [55] > 100 µM
> 100 µM: [48]

CN(Cc1ccccc1)c1cc(=O)n(C)c(=O)[nH]1
inactive: [1] > 100 µM | [2] > 100 µM | [3] > 100 µM | [4] > 100 µM | [6] > 100 µM | [8] > 100 µM | [9] > 100 µM | [10] > 100 µM | [11] > 100 µM | [12] > 100 µM | [13] > 100 µM | [14] > 100 µM | [15] > 100 µM | [17] > 100 µM | [18] > 100 µM | [19] > 100 µM | [21] > 100 µM | [22] > 100 µM | [23] > 100 µM | [24] > 100 µM | [25] > 100 µM | [26] > 100 µM | [28] > 100 µM | [29] > 100 µM | [56] > 100 µM | [30] > 100 µM | [32] > 100 µM | [33] > 100 µM | [34] > 100 µM | [35] > 100 µM | [57] > 100 µM | [36] > 100 µM | [37] 58.2 µM | [38] > 100 µM | [39] > 100 µM | [40] > 100 µM | [41] > 100 µM | [42] > 100 µM | [43] > 100 µM | [44] > 100 µM | [45] > 100 µM | [46] > 100 µM | [47] > 100 µM | [49] > 100 µM | [50] 62.2 µM | [51] > 100 µM | [52] > 100 µM | [53] > 100 µM | [58] > 100 µM | [54] > 100 µM | [55] > 100 µM
> 100 µM: [48]

CC(C)(Br)C(Br)CCC1(C2CO2)CO1 (stereo unspecified)
> 5 µM: [48]
inactive: [1] > 5 µM | [2] > 5 µM | [3] > 5 µM | [4] > 5 µM | [5] > 5 µM | [6] > 5 µM | [7] > 5 µM | [9] > 5 µM | [10] > 5 µM | [11] > 5 µM | [12] > 5 µM | [13] > 5 µM | [14] > 5 µM | [15] > 5 µM | [16] > 5 µM | [17] > 5 µM | [18] > 5 µM | [20] > 5 µM | [21] > 5 µM | [22] > 5 µM | [23] > 5 µM | [24] > 5 µM | [25] > 5 µM | [26] > 5 µM | [29] > 5 µM | [56] > 5 µM | [30] > 5 µM | [31] > 5 µM | [32] > 5 µM | [33] > 5 µM | [34] > 5 µM | [35] > 5 µM | [37] > 5 µM | [38] > 5 µM | [39] > 5 µM | [40] > 5 µM | [41] > 5 µM | [42] > 5 µM | [43] > 5 µM | [44] > 5 µM | [46] > 5 µM | [47] > 5 µM | [49] > 5 µM | [50] > 5 µM | [51] > 5 µM | [52] > 5 µM | [53] > 5 µM | [54] > 5 µM | [55] > 5 µM

N#Cc1c(N)nc2c(C#N)c(N)cc3c2c1Oc1ccccc1-3
inactive: [1] > 100 µM | [2] > 100 µM | [3] > 100 µM | [4] > 100 µM | [5] > 100 µM | [6] > 100 µM | [7] > 100 µM | [8] > 100 µM | [9] > 100 µM | [10] > 100 µM | [12] > 100 µM | [13] > 100 µM | [14] > 100 µM | [15] > 100 µM | [16] > 100 µM | [17] > 100 µM | [18] > 100 µM | [19] > 100 µM | [20] > 100 µM | [21] > 100 µM | [22] > 100 µM | [23] > 100 µM | [24] > 100 µM | [25] > 100 µM | [26] > 100 µM | [27] 74 µM | [28] > 100 µM | [29] > 100 µM | [56] > 100 µM | [30] > 100 µM | [31] > 100 µM | [32] > 100 µM | [33] > 100 µM | [34] > 100 µM | [35] > 100 µM | [57] > 100 µM | [36] > 100 µM | [37] > 100 µM | [38] > 100 µM | [39] > 100 µM | [40] > 100 µM | [41] > 100 µM | [42] > 100 µM | [43] > 100 µM | [44] > 100 µM | [45] > 100 µM | [46] > 100 µM | [47] > 100 µM | [49] > 100 µM | [50] > 100 µM | [51] > 100 µM | [52] > 100 µM | [53] > 100 µM | [58] > 100 µM | [54] > 100 µM | [55] > 100 µM
> 100 µM: [48]
